Results on 27 compounds are retold here after patent US10172814B2, “Substituted pyridyl-cycloalkyl-carboxylic acids, compositions containing them and medical uses thereof” (BAYER PHARMA AKTIENGESELLSCHAFT, priority 2014, dated 2019).

pIC50: −log10 of the molar value.

In this assay the target is human PTGES (Homo sapiens (Human), UniProt O14684). As to the kind of experiment: Human PTGES biochemical enzyme inhibition assay (conversion of PGH2 to PGE2, TR-FRET). The note with it: Enzymatic conversion of PGH2 to PGE2; read-out: Human PTGES IC50. The procedure: Human PTGES Biochemical Enzyme Inhibition Assay:
PTGES (Microsomal prostaglandin E synthase 1) is an enzyme that converts prostaglandin H2 (PGH2) to prostaglandin E2 (PGE2) in the presence of reduced glutathione (GSH).
Recombinant proteins (human isoforms) of PTGES containing a FLAG tag, expressed in baculovirus infected insect cells (Hi-5) and purified by affinity chromatography was used as enzyme in the assay. Substrate was prostaglandin H2 (Cayman Chemicals).
4 ul of a solution of human PTGES in assay buffer [100 mM sodium phosphate pH 7.2, 2.5 mM Glutathion reduced, 1 mM EDTA, 0.01% BSA, 0.4 mM DTT, 0.15 mM n-dodecylmaltoside] was added to the well containing test compound and incubated for 15-20 minutes to allow binding of the compound to the enzyme prior to the enzymatic reaction. The reaction was started by addition of 1 ul of an ice cold solution containing PGH2 (40 nM in assay buffer resulting in a final concentration of 8 nM PGH2 in the assay). […] The concentration of each isoform of PTGES was adapted to the activity of the respective enzyme preparation to maintain linear reaction properties within the reaction time. […] The reaction was stopped by addition of 1 ul of a solution containing 15 mM SnCl2 and 400 mM KF in water. SnCl2 converts the remaining unstable PGH2 to stable PGF2alpha. Then, 3 ul of the a first detection solution containing PGE2-D2 (Cisbio Bioassays, TR-FRET reagent, diluted according to the manufacturer's recommendation, typically 1:20 in reconstitution buffer) was added. […] The resulting mix was incubated overnight at 4° C. to allow the formation of a complex of PGE2 and the detection reagents. […] Dilution series were made prior to the assay in a 100 fold concentrated form by serial dilution. IC50 values were calculated by 4-Parameter fitting.
A general note: In TR-FRET formats the signal depends on donor and acceptor labels being close together.

human PTGES, sequence (O14684 whole entry): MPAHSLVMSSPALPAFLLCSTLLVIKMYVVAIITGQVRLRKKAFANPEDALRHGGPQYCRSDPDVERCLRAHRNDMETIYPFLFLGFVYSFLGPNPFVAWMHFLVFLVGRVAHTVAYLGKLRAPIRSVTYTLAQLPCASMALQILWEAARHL

For orientation: pIC50 means the negative decadic logarithm of the IC50, by convention in mol/L. For the compound `Cc1c(CCC(=O)O)cccc1NC(=O)C(c1ccc(-c2ccc(C#N)nc2)cc1)C1CCCC1` (racemic) [Example 7, (R/S) 3-[3-({[4-(6-Cyanopyridin-3-yl)phenyl](cyclopentyl)acetyl}amino)-2-methylphenyl]propanoic acid], the pIC50 is 5.50.

In the case of `CCOc1cncc(-c2ccc(C(C(=O)Nc3cccc(CCC(=O)O)c3C)C3CCCC3)cc2)c1` (racemic) [Example 8, (R/S) 3-[3-({Cyclopentyl[4-(5-ethoxypyridin-3-yl)phenyl]acetyl}amino)-2-methylphenyl]propanoic acid], the pIC50 is 6.80.

`Cc1c(CCC(=O)O)cccc1NC(=O)C(c1ccc(-c2cncc(C(C)(C)O)c2)cc1)C1CCCC1` (racemic) [Example 9, (R/S) 3-{3-[(Cyclopentyl{4-[5-(2-hydroxypropan-2-yl)pyridin-3-yl]phenyl}acetyl)amino]-2-methylphenyl}propanoic acid]: the pIC50 is 5.45.

As for `COCc1cncc(-c2ccc(C(C(=O)Nc3cccc(CCC(=O)O)c3C)C3CCCC3)cc2)c1` (racemic) [Example 10, (R/S) 3-{3-[(Cyclopentyl{4-[5-(methoxymethyl)pyridin-3-yl]phenyl}acetyl)amino]-2-methylphenyl}propanoic acid], the pIC50 was 6.33.

Turning to `COc1cncc(-c2ccc(C(C(=O)Nc3cccc(CCC(=O)O)c3C)C3CCCC3)cc2)c1` (racemic) [Example 11, (R/S) 3-[3-({Cyclopentyl[4-(5-methoxypyridin-3-yl)phenyl]acetyl}amino)-2-methylphenyl]propanoic acid], the pIC50 is 6.47.

On to `CCc1cncc(-c2ccc(C(C(=O)Nc3cccc(CCC(=O)O)c3C)C3CCCC3)cc2)c1` (racemic) [Example 13, (R/S) 3-[3-({Cyclopentyl[4-(5-ethylpyridin-3-yl)phenyl]acetyl}amino)-2-methylphenyl]propanoic acid], for which the pIC50 was 7.11.

On to `Cc1c(CCC(=O)O)cccc1NC(=O)C(c1ccc(-c2cncc(C3CC3)c2)cc1)C1CCCC1` (racemic) [Example 14, (R/S) 3-[3-({Cyclopentyl[4-(5-cyclopropylpyridin-3-yl)phenyl]acetyl}amino)-2-methylphenyl]propanoic acid], for which the pIC50 is 6.94.

`Cc1c(CCC(=O)O)cccc1NC(=O)C(c1ccc(-c2cncc(OC3CCOCC3)c2)cc1)C1CCCC1` (racemic) [Example 15, (R/S) 3-{3-[(Cyclopentyl{4-[5-(tetrahydro-2H-pyran-4-yloxy)pyridin-3-yl]phenyl}acetyl)amino]-2-methylphenyl}propanoic acid]: the pIC50 is 6.94.

In the case of `Cc1c(CCC(=O)O)cccc1NC(=O)C(c1ccc(-c2cncc(Cl)c2)cc1)C1CCCC1` (racemic) [Example 16, (R/S) 3-[3-({[4-(5-Chloropyridin-3-yl)phenyl](cyclopentyl)acetyl}amino)-2-methylphenyl]propanoic acid], the pIC50 was 7.22.

Consider `COc1ccc(-c2ccc(C(C(=O)Nc3cccc(CCC(=O)O)c3C)C3CCCC3)cc2)cn1` (racemic) [Example 18, (R/S) 3-[3-({Cyclopentyl[4-(6-methoxypyridin-3-yl)-phenyl]acetyl}amino)-2-methylphenyl]propanoic acid], for which the pIC50 is 6.63.

As to `Cc1c(CCC(=O)O)cccc1NC(=O)C(c1ccc(-c2ccc(F)nc2)cc1)C1CCCC1` (racemic) [Example 19, (R/S) 3-[3-({Cyclopentyl[4-(6-fluoropyridin-3-yl)-phenyl]acetyl}amino)-2-methylphenyl]propanoic acid], the pIC50 is 6.26.

Turning to `COc1ncccc1-c1ccc(C(C(=O)Nc2cccc(CCC(=O)O)c2C)C2CCCC2)cc1` (racemic) [Example 20, (R/S) 3-[3-({Cyclopentyl[4-(2-methoxypyridin-3-yl)-phenyl]acetyl}amino)-2-methylphenyl]propanoic acid], the pIC50 is 5.59.

For `Cc1cncc(-c2ccc(C(C(=O)Nc3cccc(CCC(=O)O)c3C)C3CCCC3)cc2)c1` (racemic) [Example 21, (R/S) 3-[3-({Cyclopentyl[4-(5-methylpyridin-3-yl)-phenyl]acetyl}amino)-2-methylphenyl]propanoic acid], the pIC50 is 6.79.

`Cc1c(CCC(=O)O)cccc1NC(=O)C(c1ccc(-c2cccnc2F)cc1)C1CCCC1` (racemic) [Example 23, (R/S) 3-[3-({cyclopentyl[4-(2-fluoro-pyridin-3-yl)-phenyl]-acetyl}amino)-2-methyl-phenyl]propanoic acid]: the pIC50 was 5.28.

For the compound `Cc1cc(-c2ccc(C(C(=O)Nc3cccc(CCC(=O)O)c3C)C3CCCC3)cc2)cnc1C` (racemic) [Example 27, (R/S) 3-[3-({Cyclopentyl[4-(5,6-dimethylpyridin-3-yl)phenyl]acetyl}amino)-2-methylphenyl]propanoic acid], the pIC50 was 7.04.

In the case of `Cc1c(CCC(=O)O)cccc1NC(=O)C(c1ccc(-c2cncc(OC(F)F)c2)cc1)C1CCCC1` (racemic) [Example 28, (R/S) 3-{3-[(Cyclopentyl{4-[5-(difluoromethoxy)pyridin-3-yl]phenyl}acetyl)amino]-2-methylphenyl}propanoic acid], the pIC50 is 6.42.

In the case of `Cc1c(CCC(=O)O)cccc1NC(=O)C(c1ccc(-c2cncc(C(F)F)c2)cc1)C1CCCC1` (racemic) [Example 29, (R/S) 3-{3-[(Cyclopentyl{4-[5-(difluoromethyl)pyridin-3-yl]phenyl}acetyl)amino]-2-methylphenyl}propanoic acid], the pIC50 was 7.11.

Take `Cc1c(CCC(=O)O)cccc1NC(=O)C(c1ccc(-c2cncc(CF)c2)cc1)C1CCCC1` (racemic) [Example 30, (R/S) 3-{3-[(Cyclopentyl{4-[5-(fluoromethyl)pyridin-3-yl]phenyl}acetyl)amino]-2-methylphenyl}propanoic acid]: the pIC50 is 6.73.

Turning to `Cc1c(CCC(=O)O)cccc1NC(=O)C(c1ccc(-c2cncc(Cl)c2)cc1)C1CC1` (racemic) [Example 31, (R/S) 3-[3-({[4-(5-Chloropyridin-3-yl)phenyl](cyclopropyl)acetyl}amino)-2-methylphenyl]propanoic acid], the pIC50 is 6.35.

In the case of `Cc1c(CCC(=O)O)cccc1NC(=O)C(c1ccc(-c2cncc(C(F)(F)F)c2)cc1)C1CC1` (racemic) [Example 32, (R/S) 3-{3-[(Cyclopropyl{4-[5-(trifluoromethyl)pyridin-3-yl]phenyl}acetyl)amino]-2-methylphenyl}propanoic acid], the pIC50 is 6.33.

As to `Cc1c(NC(=O)C(c2ccc(-c3cncc(C(F)(F)F)c3)cc2)C2CCCC2)cccc1OCC(=O)O` (racemic) [Example 33, (R/S) {3-[(Cyclopentyl{4-[5-(trifluoromethyl)pyridin-3-yl]phenyl}acetyl)amino]-2-methylphenoxy}acetic acid], the pIC50 was 7.84.

Regarding `COc1ccc(NC(=O)C(c2ccc(-c3cncc(C(F)(F)F)c3)cc2)C2CCCC2)c(C)c1CCC(=O)O` (racemic) [Example 40, (R/S) 3-{3-[(Cyclopentyl{4-[5-(trifluoromethyl)pyridin-3-yl]phenyl}acetyl)amino]-6-methoxy-2-methylphenyl}propanoic acid], the pIC50 is 7.55.

In the case of `Cc1cc(C(C(=O)Nc2cccc(CCC(=O)O)c2C)C2CCCC2)ccc1-c1cncc(C(F)(F)F)c1` (racemic) [Example 41, (R/S) 3-{3-[(Cyclopentyl{3-methyl-4-[5-(trifluoromethyl)pyridin-3-yl]phenyl}acetyl)amino]-2-methylphenyl}propanoic acid], the pIC50 is 7.72.

Consider `CCOc1cncc(-c2ccc(C(C(=O)Nc3cccc(CCC(=O)O)c3C)C3CCCC3)cc2F)c1` (racemic) [Example 46, (R/S) 3-[3-({Cyclopentyl[4-(5-ethoxypyridin-3-yl)-3-fluorophenyl]acetyl}amino)-2-methylphenyl]propanoic acid], for which the pIC50 is 7.26.

Regarding `Cc1c(CCC(=O)O)cccc1NC(=O)C(c1ccc(-c2cncc(C(F)(F)F)c2)c(F)c1)C1CCCC1` (racemic) [Example 47, (R/S) 3-{3-[(Cyclopentyl{3-fluoro-4-[5-(trifluoromethyl)pyridin-3-yl]phenyl}acetyl)amino]-2-methylphenyl}propanoic acid], the pIC50 is 7.80.

On to `Cc1c(CCC(=O)O)cccc1NC(=O)C(c1ccc(-c2cncc(C(F)F)c2)c(F)c1)C1CCCC1` (racemic) [Example 50, (R/S) 3-{3-[(cyclopentyl{4-[5-(difluoromethyl)pyridin-3-yl]-3-fluorophenyl}acetyl)amino]-2-methylphenyl}propanoic acid], for which the pIC50 was 7.37.

On to `CCOc1cncc(-c2ccc(C(C(=O)Nc3cccc(CCC(=O)O)c3C)C3CCCC3)c(F)c2)c1` (racemic) [Example 52, (R/S) 3-[3-({Cyclopentyl[4-(5-ethoxypyridin-3-yl)-2-fluorophenyl]acetyl}amino)-2-methylphenyl]propanoic acid], for which the negative logarithm of the IC50 (pIC50) is 6.56.
